The term IC50 denotes the midpoint of a concentration-inhibition curve.

For test [1], the system named is H1975 (KRAS wild type human lung adenocarcinoma cell line). Briefly: KRAS 3D-Cell Proliferation Assay, H1975 (CellTiter-Glo 3D, 7 days). The test is classed as cell-based. The note with it: H1975 3D culture, read-out: Prolif H1975 3D ATP IC50. The method in brief:
(§1)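 Cells were grown as 3D cultures in ultra-low attachment plates in RPMI-1640 with 10% FBS and 2 mM glutamine. Compound dilution series (0.3% DMSO final) were added after overnight culture, and plates were incubated for 7 days at 37 °C. CellTiter-Glo 3D luminescence was normalised to DMSO and 1 uM staurosporine, and IC50 was taken from 4-parameter Hill fits.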
(In general: In ATP-based viability assays light output follows the ATP content of the culture.)

Test [2] addresses T1, KRAS WT (Homo sapiens (Human), UniProt P01116). Briefly: KRAS WT Biochemical Assay, BODIPY-GDP Exchange TR-FRET (Example 502; 0.06 nM KRAS WT, 15 nM GDP, 300 nM SOS1, 120-minute incubation). To be noted: read-out: KRas HTRF IC50. The gist of the method:
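IC50 from a 4-parameter Hill fit of percent inhibition, itself the TR-FRET 520/490 nm ratio scaled between DMSO and a fully inhibiting control. Reaction: 300 nM SOS1 and 300 nM BODIPY-GDP added to preformed 0.06 nM KRAS WT/15 nM GDP/Tb-streptavidin complex; 120 min incubation; pH 7.5 HEPES, MgCl2, DTT.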
For orientation: Time-resolved FRET reads energy transfer from a long-lived donor to a nearby acceptor.

Test [3] deals with HPAC (homozygous mutant KRAS G12D human pancreatic cell line). The test can be described thus: KRAS 3D-Cell Proliferation Assay, HPAC (CellTiter-Glo 3D, 7 days). The test is classed as cell-based. To be noted: HPAC 3D culture, read-out: Prolif HPAC 3D ATP IC50. The gist of the method:
as §1

The subject of test [4] is AsPC-1 (homozygous mutant KRAS G12D human pancreatic cell line). Briefly: KRAS 3D-Cell Proliferation Assay, AsPC-1 (CellTiter-Glo 3D, 7 days). Format: cell-based. To be noted: AsPC-1 3D culture, read-out: Prolif AsPC-1 3D ATP IC50. How it is done: (§2) Example 503: KRAS 3D-Cell Proliferation Assays. Cellular potencies of compounds are assessed by evaluating inhibition of proliferation in 3D cultures of homozygous mutant KRAS G12D human pancreatic cell lines (AsPC-1 and HPAC) as compared to a KRAS wild type human lung adenocarcinoma cell line (PC-9 and/or H1975). Cells are seeded into 384-well black round-bottom, ultra-low attachment assay plates in 50 uL cell growth medium (RPMI-1640 with 10% fetal bovine serum and 2 mM L-glutamine). After overnight incubation at 37° C. and 5% CO2, compounds solubilized in DMSO are added as dilution series to the wells in a total volume of 150 nL (0.3% DMSO final). The cells are incubated for 7 days at 37° C. and 5% CO2. Cell proliferation is quantitated by addition of 40 uL/well of CellTiter-GloO 3D (Promega), and the well contents are mixed 20× at high speed using liquid handling automation workstation (Bravo with 384-well head) and centrifuged at 1500 rpm for 2 minutes to eliminate bubbles. This reagent in combination with mechanical disruption releases the cellular ATP to promote activity in a luciferase-based enzyme/substrate chemiluminescent detection system. After a 30-minute incubation under ambient conditions with shaking and an additional 10 minutes without shaking, the luminescence is read on a plate reader (e.g. EnVision [PerkinElmer]). The results are normalized to percent inhibition based on the following control samples: DMSO (0% inhibition) and 1 uM staurosporine (100% inhibition). The normalized luminescence results are plotted against compound concentration, and the data are fit to a 4-parameter Hill equation to determine the IC50 values.

The target of another test is KRAS G12D (Homo sapiens (Human), UniProt P01116, G12D). The test can be described thus: KRAS G12D LoEnz Biochemical Assay, BODIPY-GDP Exchange TR-FRET (SOS1-mediated nucleotide exchange). To be noted: read-out: KRas (G12D) GDP HTRF IC50.
The target of test [5] is T1, KRAS WT. Briefly: KRAS WT Biochemical Assay, BODIPY-GDP Exchange TR-FRET (Example 501; 3 nM KRAS WT, 3 nM SOS1, 60-minute incubation). The method in brief:
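SOS1-mediated exchange assay: 3 nM biotin-KRAS WT with terbium-streptavidin, started with 3 nM SOS1 and 300 nM BODIPY-GDP, HEPES pH 7.5 with MgCl2. TR-FRET (520/490 nm) read after 60 min; normalized to DMSO and full-inhibition control, IC50 from 4-parameter Hill fit.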

Test [6] relates to PC-9 (KRAS wild type human lung adenocarcinoma cell line). The test can be described thus: KRAS 3D-Cell Proliferation Assay, PC-9 (CellTiter-Glo 3D, 7 days). To be noted: PC-9 3D culture, read-out: Prolif PC9 3D ATP IC50. The test is classed as cell-based. Here is the method: as §2
Where [7] appears, read: read-out: KRas(wt) GDP HTRF IC50.

Where “and” joins values, the source holds several entries; their conditions need not be identical. Equal values may be shown once. Read-outs that look alike come from different tables or passages of the source.

T1 sequence (P01116-2 other isoform, or with tags, fused parts or gaps): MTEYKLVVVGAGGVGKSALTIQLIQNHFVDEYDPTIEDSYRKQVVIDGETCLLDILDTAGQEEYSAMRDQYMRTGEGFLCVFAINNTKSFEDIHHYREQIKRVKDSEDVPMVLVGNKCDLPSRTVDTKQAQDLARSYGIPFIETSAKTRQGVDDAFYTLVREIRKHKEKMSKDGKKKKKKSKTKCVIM
Chain of KRAS G12D (P01116-2 other isoform, or with tags, fused parts or gaps G12D): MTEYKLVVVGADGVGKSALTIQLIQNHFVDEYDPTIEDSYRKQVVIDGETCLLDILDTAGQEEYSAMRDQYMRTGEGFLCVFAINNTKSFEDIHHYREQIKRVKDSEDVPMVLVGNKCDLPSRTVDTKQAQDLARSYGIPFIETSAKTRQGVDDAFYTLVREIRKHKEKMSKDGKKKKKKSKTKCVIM

Consider `Cc1c(F)c(N)cc(-c2nc3c4c(nc(OC[C@]5(CN6CC7(COC7)C6)CC5(F)F)nc4c2F)N2C[C@H]4CC[C@H](N4)[C@H]2[C@H](C)O3)c1C(F)(F)F` (single isomer, unassigned) [165 b], for which the IC50 in test [1] stood at 499 nM; at KRAS WT [2], 1.43 nM; in test [3] it was 0.66 nM; in test [4], 0.849 nM; at KRAS G12D, 0.1 nM.

Consider `Cc1cc(N)c(F)c(-c2nc3c4c(nc(OCC56CCN5CC(F)(F)C6)nc4c2F)N2C[C@H]4CC[C@H](N4)[C@H]2[C@H](C)O3)c1` (single isomer, unassigned) [Compound 23], for which the IC50 at KRAS WT [5] (setting [7]) is 39500 nM and 94500 nM; in test [4], 20000 nM.

With `Cc1c(F)c(N)cc(-c2nc3c4c(nc(OC[C@]56CCN(C)C5COC6)nc4c2F)N2C[C@H]4CC[C@H](N4)[C@H]2[C@H](C)O3)c1C(F)(F)F` (single isomer, unassigned) [258 (isomer 2)], the half-inhibitory concentration (IC50) was 11 nM at KRAS WT [5] (read-out: KRas HTRF IC50); 1550 nM in test [1] (Homo sapiens, NCI-H1975, 168 h); 2.68 nM in test [3] (Homo sapiens, HPAC, 168 h); 6.9 nM in test [4] (Homo sapiens, ASPC1, 168 h); 0.07 nM at KRAS G12D.

For the compound `Cc1c(F)c(N)cc(-c2nc3c4c(nc(OC[C@]56CCC[C@@H]5N(C)CCC6)nc4c2F)N2C[C@H]4CC[C@H](N4)[C@H]2[C@H](C)O3)c1C(F)(F)F` (single isomer, unassigned) [126 (isomer 1)], the IC50 in test [1] (Homo sapiens, NCI-H1975, 168 h) came out at 770 nM; on KRAS WT [2], 0.42 nM; in test [3] (Homo sapiens, HPAC, 168 h) it was 0.51 nM; in test [4] (Homo sapiens, ASPC1, 168 h), 0.6 nM; on KRAS G12D, 0.1 nM.

As to `C=C1CN2CCC[C@@]2(COc2nc3c4c(nc(-c5nc(N)cc(C)c5C(F)(F)F)c(F)c4n2)O[C@@H](C)[C@@H]2[C@@H]4CC[C@H](CN32)N4)C1` [Compound 48, 6-((5S,5aS,6S,9R)-1-fluoro-5-methyl-12-(((S)-2-methylenetetrahydro-1H-pyrrolizin-7a(5H)-yl)methoxy)-5a,6,7,8,9,10-hexahydro-5H-4-oxa-3,10a,11,13,14-pentaaza-6,9-methanonaphtho[1,8-ab]heptalen-2-yl)-4-methyl-5-(trifluoromethyl)pyridin-2-amine], the IC50 came out at 10.5 nM on KRAS WT [5] (setting [7]); 20000 nM in test [6] (Homo sapiens, PC-9, 168 h); 28.5 nM at KRAS WT [2]; 0.491 nM at KRAS G12D.

`Cc1c(F)c(N)cc(-c2nc3c4c(nc(OC[C@]5(CN6CC7(COC7)C6)CC5(F)F)nc4c2F)N2C[C@H]4CC[C@H](N4)[C@H]2[C@H](C(F)(F)F)O3)c1C(F)(F)F` (stereo in doubt) [255 b, 5-((5R,5aS,6S,9R)-12-(((R)-1-((2-oxa-6-azaspiro[3.3]heptan-6-yl)methyl)-2,2-difluorocyclopropyl)methoxy)-1-fluoro-5-(trifluoromethyl)-5a,6,7,8,9,10-hexahydro-5H-4-oxa-3,10a,11,13,14-pentaaza[6,9]methanonaphtho[1,8-ab]heptalen-2-yl)-2-fluoro-3-methyl-4-(trifluoromethyl)aniline]: the IC50 came to 1.17 nM at KRAS WT [5] (read-out: KRas HTRF IC50); 308 nM in test [1]; 4.21 nM in test [3]; 4.7 nM in test [4]; 0.27 nM on KRAS G12D.

On to `Cc1c(F)c(N)cc(-c2nc3c4c(nc(OC[C@]5(CN6CC7(COC7)C6)CC5(F)F)nc4c2F)N2C[C@H]4CC[C@H](N4)[C@H]2[C@H](C)O3)c1C(F)(F)F` (stereo in doubt) [165 c, 5-((5S,5aS,6S,9R)-12-((1-((2-Oxa-6-azaspiro[3.3]heptan-6-yl)methyl)-2,2-difluorocyclopropyl)methoxy)-1-fluoro-5-methyl-5a,6,7,8,9,10-hexahydro-5H-4-oxa-3,10a,11,13,14-pentaaza[6,9]methanonaphtho[1,8-ab]heptalen-2-yl)-2-fluoro-3-methyl-4-(trifluoromethyl)aniline], for which the IC50 in test [1] came to 481 nM; at KRAS WT [2], 2.19 nM; in test [3], 1.09 nM; in test [4], 1.1 nM; on KRAS G12D, 0.09 nM.

As for `CN1CCC2COc3nc(-c4cc(O)cc5cccc(F)c45)c(F)c4nc(OC[C@@]56CCCN5C[C@H](F)C6)nc(c34)N2CC1` (single isomer, unassigned) [Compound 49], the IC50 on KRAS WT [5] (setting [7]) is 561 nM and 331 nM; in test [6] it was 4240 nM; in test [4] (Homo sapiens, ASPC1, 168 h), 20000 nM.

Turning to `Cc1c(F)c(N)cc(-c2nc3c4c(nc(OC[C@]5(CN6CC7(COC7)C6)CC5(F)F)nc4c2F)N2C[C@H]4CC[C@H](N4)[C@H]2[C@H](C)O3)c1C(F)(F)F` (mixture of isomers) [165 a, 5-((5S,5aS,6S,9R)-12-((1-((2-Oxa-6-azaspiro[3.3]heptan-6-yl)methyl)-2,2-difluorocyclopropyl)methoxy)-1-fluoro-5-methyl-5a,6,7,8,9,10-hexahydro-5H-4-oxa-3,10a,11,13,14-pentaaza[6,9]methanonaphtho[1,8-ab]heptalen-2-yl)-2-fluoro-3-methyl-4-(trifluoromethyl)aniline], the IC50 in test [1] (Homo sapiens, NCI-H1975, 168 h) worked out at 374 nM; on KRAS WT [2] it was 1.14 nM; in test [3] (Homo sapiens, HPAC, 168 h), 0.63 nM; in test [4] (Homo sapiens, ASPC1, 168 h) it was 0.6 nM; on KRAS G12D, 0.08 nM.

Consider `Cc1c(F)c(N)cc(-c2nc3c4c(nc(OC[C@@]56CCCN5C[C@H](F)C6)nc4c2F)N2C[C@H]4CC[C@H](N4)[C@@H]2C(C)O3)c1C(F)(F)F` (single isomer, unassigned) [237 (isomer 2)], for which the IC50 at KRAS WT [5] (read-out: KRas HTRF IC50) is 0.35 nM; in test [4] (Homo sapiens, ASPC1, 168 h) it was 200 nM; on KRAS G12D it was 0.15 nM.

As to `Nc1nc2c(-c3nc4c5c(ncnc5c3F)N3C[C@H]5CC[C@H](N5)[C@H]3CO4)ccc(F)c2s1` [Compound 55, 7-fluoro-4-((5aS,6S,9R)-1-fluoro-5a,6,7,8,9,10-hexahydro-5H-4-oxa-3,10a,11,13,14-pentaaza-6,9-methanonaphtho[1,8-ab]heptalen-2-yl)benzo[d]thiazol-2-amine], the IC50 is 200000 nM on KRAS WT [5] (setting [7]); 20000 nM in test [4] (Homo sapiens, ASPC1, 168 h); 22200 nM on KRAS G12D.

As for `Cc1c(F)c(N)cc(-c2nc3c4c(nc(OC[C@]5(CN6CC7(COC7)C6)CC5(F)F)nc4c2F)N2C[C@H]4CC[C@H](N4)[C@H]2[C@H](C(F)(F)F)O3)c1C(F)(F)F` (stereo in doubt) [255 a, 5-((5R,5aS,6S,9R)-12-(((R)-1-((2-oxa-6-azaspiro[3.3]heptan-6-yl)methyl)-2,2-difluorocyclopropyl)methoxy)-1-fluoro-5-(trifluoromethyl)-5a,6,7,8,9,10-hexahydro-5H-4-oxa-3,10a,11,13,14-pentaaza[6,9]methanonaphtho[1,8-ab]heptalen-2-yl)-2-fluoro-3-methyl-4-(trifluoromethyl)aniline], the IC50 on KRAS WT [5] (read-out: KRas HTRF IC50) amounted to 1.39 nM; in test [1] it was 120 nM; in test [3] it was 1.66 nM; in test [4] (Homo sapiens, ASPC1, 168 h), 6.6 nM; at KRAS G12D, 0.41 nM.

With `C#Cc1cccc2cc(O)cc(-c3nc4c5c(nc(OC[C@@]67CCCN6C[C@H](F)C7)nc5c3F)N3C[C@H]5CC[C@H](N5)[C@H]3CO4)c12` [Compound 3, 5-ethynyl-4-((5aS,6S,9R)-1-fluoro-12-(((2R,7aS)-2-fluorotetrahydro-1H-pyrrolizin-7a(5H)-yl)methoxy)-5a,6,7,8,9,10-hexahydro-5H-4-oxa-3,10a,11,13,14-pentaaza-6,9-methanonaphtho[1,8-ab]heptalen-2-yl)naphthalen-2-ol], the IC50 on KRAS WT [5] (setting [7]) came to 0.517 nM; in test [6] (Homo sapiens, PC-9, 168 h), 20000 nM; on KRAS WT [2], 0.757 nM; at KRAS G12D, 0.058 nM.
